Data on 81 compounds can be found in article PMC12040169 (PLOS Biology, 2025).

Structures are written as SMILES.

The nature of the data set: in vitro. Conditions: human, hela cells, % viability.

As to `COc1cccc2ncn(CCCn3ccnn3)c(=O)c12` [CBK306650], the viability at 28.5 h, 10 µM was determined as 103%.
`COCCN(Cc1cnn(C)c1)C(=O)c1cc(=O)c2cccc(F)c2[nH]1` [CBK306651]: the viability at 28.5 h, 10 µM was 83.8%.
In the case of `CCc1nccn1CCC(=O)NC1CCCN(Cc2ccccc2F)C1` (stereo not drawn) [CBK306652] it was 78.9%; in that of `CC(C)(O)C1CCCN(C(=O)c2cc(COc3cccc(F)c3)[nH]n2)C1` (stereo not drawn) [CBK306653], 99.9%.
`CCN(CC)CCCNc1nccc(-c2cn(C)nc2C)n1` [CBK306654]: the viability at 28.5 h, 10 µM is 97.4%.
In the case of `CCc1nccn1CCCNC(=O)Nc1cc(-c2cccnc2)nn1C` [CBK306657] it was 88.3%; in that of `CCN(CCc1nc2cc(OC)ccc2[nH]1)C(=O)c1cc(C#N)cn1C` [CBK306658], 90.5%; in that of `COCC(=O)Nc1ccc(Cl)c(NC(=O)NCCN2CCCC2=O)c1` [CBK306663], 87.9%.
For the compound `COCCn1c(CO)nnc1[C@H]1C[C@H](NC(=O)c2ccc(F)cc2F)C1` [CBK306665], the viability at 28.5 h, 10 µM is 102%.
Turning to `Cc1c(CN2CCC3(CC2)CC(c2ccccc2)CN(C)C3)cnn1C` (stereo not drawn) [CBK306666], the viability at 28.5 h, 10 µM stood at 105%.
The figure for `Cn1c(CO)nnc1[C@H]1C[C@@H](NC(=O)COc2ccc(Cl)c(Cl)c2)C1` [CBK306667] is 101%.
In the case of `Cc1cc(C(=O)NCc2cccnc2N(C)C2CCCCC2)[nH]n1` [CBK306668] it was 104%; in that of `Cc1ccn2c(C(=O)N(C)CCc3noc(C(C)C)n3)nnc2n1` [CBK306670], 89.3%; in that of `CN(C)C(=O)CCNC(=O)c1ccc2c(c1)nc(N1CC[C@H](O)C1)n2C` [CBK306671], 92.4%.
The figure for `COc1ccnc(Cn2ncc(N3CCCC3)cc2=O)c1OC` [CBK306672] is 82.7%.
`Cc1nc(N(C)C)ncc1C(=O)NCCSc1nnnn1C` [CBK306673]: the viability at 28.5 h, 10 µM is 93.1%.
The figure for `COCC1(C(=O)N2CC(=O)N(c3ccc(Cl)cc3)CC2C)CCC1` (stereo not drawn) [CBK306674] is 89.2%.
The figure for `CCCn1ccnc1-c1cn(CCc2cc(O)nc(C)n2)nn1` [CBK306675] is 114%.
With `Cc1c(Cl)c(C(=O)N[C@@H]2CCN(Cc3ccccn3)C[C@H]2O)nn1C` [CBK306676], the viability at 28.5 h, 10 µM amounted to 96%.
In the case of `Cc1noc(C)c1C(=O)N(C)Cc1cc(-c2ccncc2)no1` [CBK306677] it was 102%.
In the case of `CCc1cc(C(=O)NC(CCn2ccnc2)c2ccccc2)cc(=O)[nH]1` (stereo not drawn) [CBK306679] it was 114%; in that of `CCN(Cc1cn2ccc(C)cc2n1)CC1CCOCC1` [CBK306680], 89.7%; in that of `CC(=O)c1[nH]c(C)c(C(=O)N(C)Cc2cc(-c3ccncc3)no2)c1C` [CBK306681], 97%.
The figure for `CCCCn1nc(C2CC2)nc1-c1cnn2cc(C)cnc12` [CBK306683] is 89.6%.
As to `Cc1ccccc1-c1noc(C(C)NC(=O)C2(Cn3ccnc3)CC2)n1` (stereo not drawn) [CBK306684], the viability at 28.5 h, 10 µM was determined as 99.7%.
The figure for `Cc1nc2cc(OCc3nc(C(=O)N(C)CCN(C)C)co3)ccc2s1` [CBK306685] is 106%.
In the case of `COc1cncc(C(NC(=O)c2ccn3nnnc3c2)[C@H]2C[C@@H](O)C2)c1` (stereo partly drawn) [CBK306686] it was 96.2%.
The figure for `NC(=O)c1c(F)cccc1-c1cc(NCCO)nc2[nH]ccc12` [CBK306689] is 112%; for `CCCOCCN1CCN(C(=O)c2nn3cc(C)cnc3c2Cl)CC1` [CBK306690] it is 95.6%.
For `CCCn1ccnc1CN1CCC2(CC1)CC(C(=O)O)N(C(C)=O)C2` (stereo not drawn) [CBK306691], the viability at 28.5 h, 10 µM is 92.9%.
As to `Cc1ccc(OCC(=O)NCC2CCN(c3cnn(C)c(=O)c3)C2)cc1` (stereo not drawn) [CBK306693], the viability at 28.5 h, 10 µM was 83.6%.
The figure for `CCCS(=O)(=O)N1CCC2(CCCN(Cc3cccc(F)c3F)C2=O)C1` (stereo not drawn) [CBK306694] is 90.8%.
With `CCOC(=O)c1cn(CC2(CO)CCC2)cc(Oc2ccccc2)c1=O` [CBK306698], the viability at 28.5 h, 10 µM came out at 97.2%.
In the case of `CCn1cc(C(=O)N2CCC(Oc3ccccc3C)(C(=O)O)CC2)cn1` [CBK306699] it was 118%; in that of `COCCCn1cnnc1C(C)NC(=O)N(C)Cc1nccs1` (stereo not drawn) [CBK306702], 111%.
The figure for `COc1ccc2[nH]nc(CN3CCCC(c4cc(O)nc(C)n4)C3)c2c1` (stereo not drawn) [CBK306703] is 87.6%.
In the case of `Cc1cc(C)c(C(=O)NC2CCN(c3ncccc3C#N)CC2)c(=O)[nH]1` [CBK306709] it was 110%; in that of `CN(C)C(=O)c1cc2cc(NC(=O)CC3COCCN3)ccc2s1` (stereo not drawn) [CBK306710], 105%.
Take `COc1cc(C)c(-c2nc(C)nc(C)c2C)c(C)c1` [CBK306711]: the viability at 28.5 h, 10 µM worked out at 90.5%.
Regarding `Cc1nc(O)cc(CCn2cc(-c3cncnc3)nn2)n1` [CBK306712], the viability at 28.5 h, 10 µM is 96.2%.
In the case of `Cc1cc(N2CCCC(COc3ccccc3F)C2)nc(N)n1` (stereo not drawn) [CBK306714] it was 74.4%; in that of `Cc1cc2cccc(NC(=O)NCc3cncn3CC(C)C)c2o1` [CBK306715], 101%.
The figure for `CCn1ncnc1CN1CCN(Cc2ccccc2CO)CC1` [CBK306717] is 88.1%; for `CCn1ncc(CN(C)C(=O)CCN2CCCCCC2=O)c1C` [CBK306718] it is 97.2%; for `Cc1cc(C)n(CCNC(=O)N2CCC(Oc3cccnc3)CC2)n1` [CBK306719] it is 109%.
In the case of `CSc1nnc(CC2CCN(C(=O)c3ccccc3C(C)=O)CC2)n1C` [CBK306720] it was 111%.
With `Cc1ccc(OCc2occc2C(=O)NCCn2ccnc2C)cc1` [CBK306725], the viability at 28.5 h, 10 µM was determined as 93.7%.
In the case of `CN1CC(C(=O)N(C)Cc2nc(-c3ccccc3)no2)NC1=O` (stereo not drawn) [CBK306727] it was 108%.
As to `CCn1cc(CN(CC(C)C)C(=O)c2ccccc2C#N)cn1` [CBK306729], the viability at 28.5 h, 10 µM stood at 102%.
The figure for `Cn1ncnc1CCNS(=O)(=O)c1cccc(C(=O)N2CCCCC2)c1` [CBK306731] is 101%.
The figure for `COCCN(C)c1nc2c(c(=O)[nH]1)Cc1ccccc1OC2` [CBK306737] is 105%; for `CCCn1ccnc1CNc1nc(C(C)(C)C)nc2c1cnn2C` [CBK306739] it is 91.3%; for `CO[C@@]12CC[C@@H](O)C[C@@H]1N(C(=O)c1cccc3c1NCCC3)CC2` [CBK306741] it is 109%.
In the case of `COCCC(=O)NCC1Cc2cc(F)cc(-c3ccc(C(C)=O)s3)c2O1` (stereo not drawn) [CBK306742] it was 109%; in that of `COc1c[nH]c(C(=O)NC(CCn2ccnc2)c2ccccc2)cc1=O` (stereo not drawn) [CBK306743], 94%.
On to `CC(=O)N1CCc2c(nc(N(C)C)nc2NCCCOC(C)C)C1` [CBK306745], for which the viability at 28.5 h, 10 µM was determined as 84.4%.
For the compound `COC(=O)N1CCCCC1C(=O)NCCc1nc(C)cc(C(F)(F)F)n1` (stereo not drawn) [CBK306752], the viability at 28.5 h, 10 µM is 94.2%.
In the case of `O=C(c1cncs1)N1CCn2nc(C(O)Cc3ccccc3)cc2C1` (stereo not drawn) [CBK306754] it was 90.6%.
In the case of `CN(Cc1nc(-c2ccccc2)no1)C(=O)C1CCOC1` (stereo not drawn) [CBK306755] it was 107%.
The figure for `O=C(c1cn2cc(-c3cccs3)n(CC3CC3)c(=O)c2n1)N1CCCC1` [CBK306756] is 92.8%.
For the compound `CN(Cc1nc2c(s1)CCCC2)C(=O)COc1ccc2nncn2n1` [CBK306758], the viability at 28.5 h, 10 µM turned out to be 98.9%.
Regarding `COc1ccc(-n2ncc3c2CC(C)(C)CC3NS(C)(=O)=O)cc1` (stereo not drawn) [CBK306759], the viability at 28.5 h, 10 µM was found to be 88.7%.
For the compound `CCc1nccn1CCC(=O)NC1CCN(c2ccc(F)cc2)CC1` [CBK306760], the viability at 28.5 h, 10 µM was 90.1%.
As for `CN(CC(=O)NCC1CCN(c2cccc(Cl)c2)C1)Cc1cccnc1` (stereo not drawn) [CBK306761], the viability at 28.5 h, 10 µM is 93.4%.
Turning to `COc1cc(OC)cc(-c2c(C)ncnc2OC)c1` [CBK306765], the viability at 28.5 h, 10 µM came to 91.4%.
The figure for `CC(=O)N1CCn2nc(C(=O)N(CCO)Cc3ccccc3)cc2C1` [CBK306769] is 89.3%; for `CCCS(=O)(=O)NC1CC(C)(C)Cc2c1cnn2-c1ccc(F)cc1` (stereo not drawn) [CBK306770] it is 113%.
The figure for `CCn1nc(C)c(NC(=O)CN(C)Cc2ccccc2C(F)(F)F)c1C` [CBK306771] is 106%.
The figure for `CN(C)S(=O)(=O)CCNC(=O)c1ccc(-c2ccccc2CO)cc1` [CBK306773] is 95.6%.
For the compound `O=C(c1ccccn1)C1CCCN(c2nccc(CCC(F)(F)F)n2)C1` (stereo not drawn) [CBK306775], the viability at 28.5 h, 10 µM was 109%.
The figure for `CCCc1cc(C(=O)N2CCCC(COc3cccc(F)c3)C2)[nH]n1` (stereo not drawn) [CBK306776] is 85.3%; for `Cn1c(=O)n(C)c2cc(S(=O)(=O)NCC3(O)CCCNCC3)ccc21` (stereo not drawn) [CBK306777] it is 84.9%; for `CC(=O)OCc1c(C)cc(C)c(CN(C)C(C)c2ccon2)c1C` (stereo not drawn) [CBK306780] it is 79.3%.
In the case of `CN(CCN1CCOCC1)c1nc2c(c(=O)[nH]1)Cc1ccccc1OC2` [CBK306783] it was 75.4%; in that of `CC(=O)Nc1ccc(C(=O)N(Cc2ccccn2)CC2CCCO2)cn1` (stereo not drawn) [CBK306784], 83.7%.
In the case of `CCn1c(CC2CCN(c3ncc(C#N)c(N)n3)CC2)nn(C)c1=O` [CBK306788] it was 93.3%.
In the case of `COc1ccc(-n2ncc3c2CC(C)(C)CC3N)cc1` (stereo not drawn) [CBK306789], the viability at 28.5 h, 10 µM worked out at 80%.
In the case of `CCCn1ccnc1-c1cn(Cc2cc(C(C)(C)C)n[nH]2)nn1` [CBK306791] it was 118%; in that of `Cn1c(CO)nnc1[C@H]1C[C@@H](NC(=O)CCc2ccc(F)cc2F)C1` [CBK306796], 86.4%; in that of `Cc1c[nH]c(CN(C)c2cc([C@H]3C[C@@H](N)C3)nc(N3CCCC3)n2)n1` [CBK306798], 84.4%.
Regarding `CCCOCC1CCN(C(=O)Nc2ccc(Oc3cccnc3)cc2)C1` (stereo not drawn) [CBK306799], the viability at 28.5 h, 10 µM was 102%.

The viability is a read-out of living cells in per cent, often relative to untreated cells.
